# Measurements from publication PMC10053623, “Water-Soluble Fullerene C60 Derivatives Are Effective Inhibitors of Influenza Virus Replication” (Microorganisms, 2023).
# Legend:
# [1] = system: Influenza A/Puerto Rico/8/34 (H1N1) virus; assay: microbe, parasite or virus in culture; format: cell-based
# in vitro = settings: dog
compound,measurement,setting,value
CCC(CC)O[C@@H]1C=C(C(=O)O)C[C@H](N)[C@H]1NC(C)=O [Oseltamivir carboxylate],"SI, selectivity index, the ratio of CC50 to IC50",[1],>667
same,IC50,"[1]; Influenza A virus, H1N1, MDCK, 72 h, read-out: IC50, inhibitory concentration causing a 50% decrease in virus-induced cell death",300 ± 20 nM
same,CC50 at 72 h,in vitro,> 200000 nM
